# Species on record: Rattus norvegicus
# Assay: DrugMatrix - Regimen: Daily Repeat
# Format: toxicity, organism-based, Sprague-Dawley
# Set-up: regimen Daily Repeat, gender Male, age 6-8 weeks
# Details: in vivo, po, 1750 mg/kg, route oral GAVAGE, dose level High, vehicle .5 % CMC; for ABSOLUTE BASOPHIL / ABSOLUTE EOSINOPHIL / ABSOLUTE LYMPHOCYTE / ABSOLUTE MONOCYTE / ABSOLUTE SEGMENTED NEUTROPHIL / BASOPHIL / EOSINOPHIL / ERYTHROCYTE COUNT / HEMATOCRIT / HEMOGLOBIN / LEUKOCYTE COUNT / LYMPHOCYTE / MEAN CORPUSCULAR HEMOGLOBIN / MEAN CORPUSCULAR HEMOGLOBIN CONCENTRATION / MEAN CORPUSCULAR VOLUME / MONOCYTE / NEUTROPHIL / NUCLEATED RED BLOOD CELLS / PLATELET COUNT: tissue Blood; for ALANINE AMINOTRANSFERASE / ALBUMIN / ALKALINE PHOSPHATASE / ASPARTATE AMINOTRANSFERASE / BLOOD UREA NITROGEN / CARBON DIOXIDE / CHLORIDE / CHOLESTEROL / CREATINE PHOSPHOKINASE / CREATININE / GLUCOSE / LACTATE DEHYDROGENASE / LIPASE / PHOSPHORUS / POTASSIUM / SODIUM / TOTAL BILIRUBIN / TOTAL PROTEIN / URIC ACID: tissue Plasma
compound,measurement,setting,value
CCOC(=O)[C@H](CCc1ccccc1)N[C@H]1CCc2ccccc2N(CC(=O)O)C1=O [BENAZEPRIL],ABSOLUTE BASOPHIL,"72 h, time 3 day",0 CELLS/uL
same,ABSOLUTE EOSINOPHIL,"72 h, time 3 day",139.33 CELLS/uL
same,ABSOLUTE LYMPHOCYTE,"72 h, time 3 day",16004 CELLS/uL
same,ABSOLUTE MONOCYTE,"72 h, time 3 day",0 CELLS/uL
same,ABSOLUTE SEGMENTED NEUTROPHIL,"72 h, time 3 day",1823.33 CELLS/uL
same,BASOPHIL,"72 h, time 3 day",0%
same,EOSINOPHIL,"72 h, time 3 day",0.67%
same,ERYTHROCYTE COUNT,"72 h, time 3 day",5.02 x10E6/uL
same,HEMATOCRIT,"72 h, time 3 day",32.27%
same,HEMOGLOBIN,"72 h, time 3 day",13.23 G/DL
same,LEUKOCYTE COUNT,"72 h, time 3 day",17.97 x10E3/uL
same,LYMPHOCYTE,"72 h, time 3 day",89.33%
same,MEAN CORPUSCULAR HEMOGLOBIN,"72 h, time 3 day",26.43 pg
same,MEAN CORPUSCULAR HEMOGLOBIN CONCENTRATION,"72 h, time 3 day",41.03 G/DL
same,MEAN CORPUSCULAR VOLUME,"72 h, time 3 day",64.37 fL
same,MONOCYTE,"72 h, time 3 day",0%
same,NEUTROPHIL,"72 h, time 3 day",10%
same,NUCLEATED RED BLOOD CELLS,"72 h, time 3 day",0 /100WBC
same,PLATELET COUNT,"72 h, time 3 day",1175.67 x10E3/uL
same,ALANINE AMINOTRANSFERASE,"72 h, time 3 day",47.67 u/L
same,ALBUMIN,"72 h, time 3 day",4.13 G/DL
same,ALKALINE PHOSPHATASE,"72 h, time 3 day",388 u/L
same,ASPARTATE AMINOTRANSFERASE,"72 h, time 3 day",83.33 u/L
same,BLOOD UREA NITROGEN,"72 h, time 3 day",23.67 mg/dL
same,CARBON DIOXIDE,"72 h, time 3 day",28.33 mmol/L
same,CHLORIDE,"72 h, time 3 day",101 MEQ/L
same,CHOLESTEROL,"72 h, time 3 day",63.67 mg/dL
same,CREATINE PHOSPHOKINASE,"72 h, time 3 day",244.67 u/L
same,CREATININE,"72 h, time 3 day",0.24 mg/dL
same,GLUCOSE,"72 h, time 3 day",152.33 mg/dL
same,LACTATE DEHYDROGENASE,"72 h, time 3 day",297.33 u/L
same,LIPASE,"72 h, time 3 day",9.33 u/L
same,PHOSPHORUS,"72 h, time 3 day",11.27 mg/dL
same,POTASSIUM,"72 h, time 3 day",7.42 MEQ/L
same,SODIUM,"72 h, time 3 day",140.93 MEQ/L
same,TOTAL BILIRUBIN,"72 h, time 3 day",0.23 mg/dL
same,TOTAL PROTEIN,"72 h, time 3 day",5.73 G/DL
same,URIC ACID,"72 h, time 3 day",1.73 mg/dL
same,ABSOLUTE BASOPHIL,"120 h, time 5 day",0 CELLS/uL
same,ABSOLUTE EOSINOPHIL,"120 h, time 5 day",0 CELLS/uL
same,ABSOLUTE LYMPHOCYTE,"120 h, time 5 day",16017 CELLS/uL
same,ABSOLUTE MONOCYTE,"120 h, time 5 day",660 CELLS/uL
same,ABSOLUTE SEGMENTED NEUTROPHIL,"120 h, time 5 day",1423 CELLS/uL
same,BASOPHIL,"120 h, time 5 day",0%
same,EOSINOPHIL,"120 h, time 5 day",0%
same,ERYTHROCYTE COUNT,"120 h, time 5 day",5.54 x10E6/uL
same,HEMATOCRIT,"120 h, time 5 day",33.43%
same,HEMOGLOBIN,"120 h, time 5 day",13.43 G/DL
same,LEUKOCYTE COUNT,"120 h, time 5 day",18.1 x10E3/uL
same,LYMPHOCYTE,"120 h, time 5 day",89.33%
same,MEAN CORPUSCULAR HEMOGLOBIN,"120 h, time 5 day",24.3 pg
same,MEAN CORPUSCULAR HEMOGLOBIN CONCENTRATION,"120 h, time 5 day",40.2 G/DL
same,MEAN CORPUSCULAR VOLUME,"120 h, time 5 day",60.5 fL
same,MONOCYTE,"120 h, time 5 day",3.67%
same,NEUTROPHIL,"120 h, time 5 day",7%
same,NUCLEATED RED BLOOD CELLS,"120 h, time 5 day",0.33 /100WBC
same,PLATELET COUNT,"120 h, time 5 day",1330 x10E3/uL
same,ALANINE AMINOTRANSFERASE,"120 h, time 5 day",49.67 u/L
same,ALBUMIN,"120 h, time 5 day",4.03 G/DL
same,ALKALINE PHOSPHATASE,"120 h, time 5 day",380.33 u/L
same,ASPARTATE AMINOTRANSFERASE,"120 h, time 5 day",85.33 u/L
same,BLOOD UREA NITROGEN,"120 h, time 5 day",44 mg/dL
same,CARBON DIOXIDE,"120 h, time 5 day",30 mmol/L
same,CHLORIDE,"120 h, time 5 day",104.33 MEQ/L
same,CHOLESTEROL,"120 h, time 5 day",74.67 mg/dL
same,CREATINE PHOSPHOKINASE,"120 h, time 5 day",585 u/L
same,CREATININE,"120 h, time 5 day",0.27 mg/dL
same,GLUCOSE,"120 h, time 5 day",150.67 mg/dL
same,LACTATE DEHYDROGENASE,"120 h, time 5 day",227 u/L
same,LIPASE,"120 h, time 5 day",9.33 u/L
same,PHOSPHORUS,"120 h, time 5 day",10.53 mg/dL
same,POTASSIUM,"120 h, time 5 day",6.39 MEQ/L
same,SODIUM,"120 h, time 5 day",143.17 MEQ/L
same,TOTAL BILIRUBIN,"120 h, time 5 day",0.2 mg/dL
same,TOTAL PROTEIN,"120 h, time 5 day",6 G/DL
same,URIC ACID,"120 h, time 5 day",1.53 mg/dL

# — ChEMBL document CHEMBL3885881, “DrugMatrix”
